Test: Measured activity expressed as ID50 (analogue)/ID50 (paclitaxel), where ID50 is the concentration of compound leading to 50% inhibition of the rate microtubule disassembly
Assay type: functional

Structure (SMILES)	Activity
CC(=O)O[C@@]12COC1C[C@H](O)[C@@]1(C)C(=O)[C@H](O)C3=C(C)[C@@H](OC(=O)[C@H](O)[C@@H](C=C(C)C)NC(=O)OC(C)(C)C)C[C@@](O)([C@@H](OC(=O)c4ccccc4)[C@@H]12)C3(C)C (some centres undefined)	0.64
CC(=O)O[C@H]1C(=O)[C@]2(C)[C@@H](O)CC3OC[C@@]3(OC(C)=O)[C@H]2[C@H](OC(=O)C2CCCCC2)[C@]2(O)C[C@H](OC(=O)[C@H](O)[C@@H](NC(=O)OC(C)(C)C)c3ccccc3)C(C)=C1C2(C)C (some centres undefined)	0.67
CC(=O)O[C@@]12COC1C[C@H](O)[C@@]1(C)C(=O)[C@H](O)C3=C(C)[C@@H](OC(=O)[C@H](O)[C@H](NC(=O)N(C)c4ccc[nH]4)C(C)(C)C)C[C@@](O)([C@@H](OC(=O)c4ccccc4)[C@@H]12)C3(C)C (some centres undefined)	0.96
COC[C@H](NC(=O)c1ccccc1)[C@@H](O)C(=O)O[C@H]1C[C@@]2(O)[C@@H](OC(=O)c3ccccc3)[C@H]3[C@@](C)([C@@H](O)CC4OC[C@]43OC(C)=O)[C@@H](O)[C@H](OC(C)=O)C(=C1C)C2(C)C (some centres undefined)	3.14
CC(=O)O[C@@]12COC1C[C@H](O)[C@@]1(C)C(=O)[C@H](O)C3=C(C)[C@@H](OC(=O)[C@H](O)[C@@H](CC(C)(C)C)NC(=O)OC(C)(C)C)C[C@@](O)([C@@H](OC(=O)c4ccccc4)[C@@H]12)C3(C)C (some centres undefined)	1.45
CC(=O)O[C@@]12COC1C[C@H](O)[C@@]1(C)C(=O)[C@H](O)C3=C(C)[C@@H](OC(=O)[C@H](O)[C@H](NC(=O)c4cccs4)C(C)(C)C)C[C@@](O)([C@@H](OC(=O)c4ccccc4)[C@@H]12)C3(C)C (some centres undefined)	0.42
CC(=O)O[C@@]12COC1C[C@H](O)[C@@]1(C)C(=O)[C@H](O)C3=C(C)[C@@H](OC(=O)[C@@H](O)[C@H](N)c4ccccc4)C[C@@](O)([C@@H](OC(=O)c4ccccc4)[C@@H]12)C3(C)C (some centres undefined)	30
CC(=O)O[C@@]12COC1C[C@H](O)[C@@]1(C)C(=O)[C@H](O)C3=C(C)[C@@H](OC(=O)[C@@H](NC(=O)c4ccccc4)[C@@H](O)c4ccccc4)C[C@@](O)([C@@H](OC(=O)c4ccccc4)[C@@H]12)C3(C)C (some centres undefined)	170
CCCCOC(=O)N[C@H](c1ccccc1)[C@@H](O)C(=O)O[C@H]1C[C@@]2(O)[C@@H](OC(=O)c3ccccc3)[C@H]3[C@](C)(C(=O)[C@H](OC(C)=O)C(=C1C)C2(C)C)[C@@H](O)CC1OC[C@]13OC(C)=O (some centres undefined)	0.8
CC(=O)O[C@H]1C(=O)[C@]2(C)[C@@H](O)CC3OC[C@@]3(OC(C)=O)[C@H]2[C@H](OC(=O)C2CCCCC2)[C@]2(O)C[C@H](OC(=O)[C@H](O)[C@@H](NC(=O)C3CCCCC3)C3CCCCC3)C(C)=C1C2(C)C (some centres undefined)	0.47
CC(=O)O[C@@]12COC1C[C@H](O)[C@@]1(C)C(=O)[C@H](O)C3=C(C)[C@@H](OC(=O)[C@@H](O)Cc4ccccc4)C[C@@](O)([C@@H](OC(=O)c4ccccc4)[C@@H]12)C3(C)C (some centres undefined)	3.5
CC(=O)O[C@H]1C(=O)[C@]2(C)[C@@H](O)CC3OC[C@@]3(OC(C)=O)[C@H]2[C@H](OC(=O)c2ccccc2)[C@]2(O)C[C@H](OC(=O)[C@H](O)[C@H](NC(=O)c3ccc(Cl)cc3)c3ccccc3)C(C)=C1C2(C)C (some centres undefined)	2.4
CC(=O)O[C@H]1C(=O)[C@]2(C)[C@@H](O)CC3OC[C@@]3(OC(C)=O)[C@H]2[C@H](OC(=O)c2ccccc2)[C@]2(O)C[C@H](OC(=O)[C@@H](O)[C@@H](NC(=O)c3ccccc3)c3ccccc3)C(C)=C1C2(C)C (some centres undefined)	4.5
CC(=O)O[C@H]1C(=O)[C@]2(C)[C@@H](O)CC3OC[C@@]3(OC(C)=O)[C@H]2[C@H](OC(=O)c2ccccc2)[C@]2(O)C[C@H](OC(=O)[C@H](NC(=O)c3ccccc3)[C@H](O)c3ccccc3)C(C)=C1C2(C)C (some centres undefined)	10
COC(=O)[C@H]1CC2OC[C@@]2(OC(C)=O)[C@H]2[C@H](OC(=O)c3ccccc3)[C@]3(O)C[C@H](OC(=O)[C@H](O)[C@@H](NC(=O)c4ccccc4)c4ccccc4)C(C)=C([C@@H](OC(C)=O)[C@H](C(=O)OC)[C@]12C)C3(C)C (some centres undefined)	0.91
CC(=O)O[C@H]1C(=O)[C@]2(C)[C@@H](O)CC3OC[C@@]3(OC(C)=O)[C@H]2[C@H](OC(=O)c2ccccc2)[C@]2(O)C[C@H](OC(=O)[C@H](O)[C@H](NC(=O)c3ccccc3)c3ccc(C)cc3)C(C)=C1C2(C)C (some centres undefined)	0.8
CCOC(=O)N[C@@H](c1ccccc1)[C@@H](O)C(=O)O[C@H]1C[C@@]2(O)[C@@H](OC(=O)c3ccccc3)[C@H]3[C@@](C)([C@@H](O)CC4OC[C@]43OC(C)=O)[C@@H](O)[C@H](OC(C)=O)C(=C1C)C2(C)C (some centres undefined)	0.82
CC(=O)O[C@@]12COC1C[C@H](O)[C@@]1(C)C(=O)[C@H](O)C3=C(C)[C@@H](OC(=O)[C@H](O)[C@@H](/C=C/c4ccccc4)NC(=O)OC(C)(C)C)C[C@@](O)([C@@H](OC(=O)c4ccccc4)[C@@H]12)C3(C)C (some centres undefined)	1.45
COc1ccc([C@@H](NC(=O)c2ccccc2)[C@@H](O)C(=O)O[C@H]2C[C@@]3(O)[C@@H](OC(=O)c4ccccc4)[C@H]4[C@](C)(C(=O)[C@H](OC(C)=O)C(=C2C)C3(C)C)[C@@H](O)CC2OC[C@]24OC(C)=O)cc1 (some centres undefined)	0.5
CC(=O)O[C@@H]1C2=C(C)[C@@H](OC(=O)[C@H](O)[C@H](C)NC(=O)OC(C)(C)C)C[C@@](O)([C@@H](OC(=O)c3ccccc3)[C@H]3[C@@](C)([C@@H](O)CC4OC[C@]43OC(C)=O)[C@H]1O)C2(C)C (some centres undefined)	1.08

Structure (SMILES)	Activity
CC(=O)O[C@H]1C(=O)[C@]2(C)[C@@H](O)CC3OC[C@@]3(OC(C)=O)[C@H]2[C@H](OC(=O)c2ccccc2)[C@]2(O)C[C@H](OC(=O)[C@@H](NC(=O)OC(C)(C)C)[C@@H](O)c3ccccc3)C(C)=C1C2(C)C (some centres undefined)	108
CC(=O)O[C@H]1C(=O)[C@]2(C)[C@@H](O)CC3OC[C@@]3(OC(C)=O)[C@H]2[C@H](OC(=O)c2ccccc2)[C@]2(O)C[C@H](OC(=O)[C@H](NC(=O)OC(C)(C)C)[C@H](O)c3ccccc3)C(C)=C1C2(C)C (some centres undefined)	10
CC(=O)O[C@H]1C(=O)[C@]2(C)[C@@H](O)CC3OC[C@@]3(OC(C)=O)[C@H]2[C@H](OC(=O)c2ccccc2)[C@]2(O)C[C@H](OC(=O)[C@@H](NC(=O)c3ccccc3)[C@@H](O)c3ccccc3)C(C)=C1C2(C)C (some centres undefined)	110
CC(=O)O[C@@]12COC1C[C@H](O)[C@@]1(C)C(=O)[C@H](O)C3=C(C)[C@@H](OC(=O)[C@H](NC(=O)c4ccccc4)[C@H](O)c4ccccc4)C[C@@](O)([C@@H](OC(=O)c4ccccc4)[C@@H]12)C3(C)C (some centres undefined)	10
CC(=O)O[C@@]12COC1C[C@H](O)[C@@]1(C)C(=O)[C@H](O)C3=C(C)[C@@H](OC(=O)[C@H](O)[C@@H](NC(=O)OC(C)(C)C)c4ccccc4)[C@@H]4OC(C)(C)O[C@]4([C@@H](OC(=O)c4ccccc4)[C@@H]12)C3(C)C (some centres undefined)	3
CC(=O)O[C@@]12COC1C[C@H](O)[C@@]1(C)C(=O)[C@H](O)C3=C(C)[C@@H](OC(=O)/C=C/c4ccccc4)C[C@@](O)([C@@H](OC(=O)c4ccccc4)[C@@H]12)C3(C)C (some centres undefined)	23
CC(=O)O[C@@]12COC1C[C@H](O)[C@@]1(C)C(=O)[C@H](O)C3=C(C)[C@@H](OC(=O)[C@H](O)[C@@H](CC(C)C)NC(=O)OC(C)(C)C)C[C@@](O)([C@@H](OC(=O)c4ccccc4)[C@@H]12)C3(C)C (some centres undefined)	0.78
CC(=O)O[C@@H]1C2=C(C)[C@@H](OC(=O)[C@H](O)[C@@H](NC(=O)OC(C)C)c3ccccc3)C[C@@](O)([C@@H](OC(=O)c3ccccc3)[C@H]3[C@@](C)([C@@H](O)CC4OC[C@]43OC(C)=O)[C@H]1O)C2(C)C (some centres undefined)	0.75
CC(=O)O[C@@H]1C2=C(C)[C@@H](OC(=O)[C@H](O)[C@@H](NC(=O)NC(C)(C)C)c3ccccc3)C[C@@](O)([C@@H](OC(=O)c3ccccc3)[C@H]3[C@@](C)([C@@H](O)CC4OC[C@]43OC(C)=O)[C@H]1O)C2(C)C (some centres undefined)	1.06
CC(=O)O[C@H]1C(=O)[C@]2(C)[C@@H](O)CC3OC[C@@]3(OC(C)=O)[C@H]2[C@H](OC(=O)C2CCCCC2)[C@]2(O)C[C@H](OC(=O)[C@H](O)[C@@H](NC(=O)c3ccccc3)c3ccccc3)C(C)=C1C2(C)C (some centres undefined)	1.7
CO[C@H]1CC2OC[C@@]2(OC(C)=O)[C@H]2[C@H](OC(=O)c3ccccc3)[C@]3(O)C[C@H](OC(=O)[C@H](O)[C@@H](NC(=O)OC(C)(C)C)c4ccccc4)C(C)=C([C@@H](OC(C)=O)[C@H](O)[C@]12C)C3(C)C (some centres undefined)	1.74
CC(=O)O[C@@]12COC1C[C@H](O)[C@@]1(C)C(=O)[C@H](O)C3=C(C)[C@@H](OC(=O)[C@H](O)[C@@H](NC(=O)OC(C)(C)C)c4ccccc4)[C@H](O)[C@@](O)([C@@H](OC(=O)c4ccccc4)[C@@H]12)C3(C)C (some centres undefined)	0.8
CO[C@H]1[C@H](OC(C)=O)C2=C(C)[C@@H](OC(=O)[C@H](O)[C@@H](NC(=O)c3ccccc3)c3ccccc3)C[C@@](O)([C@@H](OC(=O)c3ccccc3)[C@H]3[C@@]1(C)[C@@H](O)CC1OC[C@]13OC(C)=O)C2(C)C (some centres undefined)	0.35
CC(=O)O[C@@H]1C2=C(C)[C@@H](OC(=O)[C@H](O)[C@@H](NC(=O)OC(C)(C)C)C3CCCCC3)C[C@@](O)([C@@H](OC(=O)c3ccccc3)[C@H]3[C@@](C)([C@@H](O)CC4OC[C@]43OC(C)=O)[C@H]1O)C2(C)C (some centres undefined)	0.57
CC(=O)O[C@@H]1C2=C(C)[C@@H](OC(=O)[C@H](O)[C@@H](NC(=O)OC(C)(C)C)[C@H]3COC(C)(C)O3)C[C@@](O)([C@@H](OC(=O)c3ccccc3)[C@H]3[C@@](C)([C@@H](O)CC4OC[C@]43OC(C)=O)[C@H]1O)C2(C)C (some centres undefined)	7.91
CC(=O)O[C@H]1C(=O)[C@]2(C)[C@@H](O)CC3OC[C@@]3(OC(C)=O)[C@H]2[C@H](OC(=O)c2ccccc2)[C@]2(O)C[C@H](OC(=O)[C@H](O)[C@H](NC(=O)CC(C)C)c3ccccc3)C(C)=C1C2(C)C (some centres undefined)	1.9
CC(=O)O[C@@]12COC1C[C@H](O)[C@@]1(C)C(=O)[C@H](O)C3=C(C)[C@@H](OC(=O)C(O)C(O)c4ccccc4)C[C@@](O)([C@@H](OC(=O)c4ccccc4)[C@@H]12)C3(C)C (some centres undefined)	3
CC(=O)O[C@H]1C(=O)[C@]2(C)[C@@H](O)CC3OC[C@@]3(OC(C)=O)[C@H]2[C@H](OC(=O)c2ccccc2)[C@]2(O)C[C@H](OC(=O)[C@H](O)[C@H](NC(=O)c3ccccc3)c3cccc4ccccc34)C(C)=C1C2(C)C (some centres undefined)	7.1
COC(=O)[C@@H](C(=O)O[C@H]1C[C@@]2(O)[C@@H](OC(=O)c3ccccc3)[C@H]3[C@](C)(C(=O)[C@H](OC(C)=O)C(=C1C)C2(C)C)[C@@H](O)CC1OC[C@]13OC(C)=O)[C@H](NC(=O)c1ccccc1)c1ccccc1 (some centres undefined)	30

Source: ChEMBL document CHEMBL1130335, “Comparative molecular field analysis of a series of paclitaxel analogues” (J Med Chem, 1997)
